Experimental findings from US20080020981A1, “Non-nucleoside reverse transcriptase inhibitors” (Roche Palo Alto LLC, priority 2006, published 2008) are described below.

In data set [1] the target is T1, HIV-RT enzyme (HIV-1 reverse transcriptase) (Human immunodeficiency virus type 1 group M subtype B, UniProt P03366).
T1 construct: Reactions were initiated by the addition of 30 μl of the HIV-RT enzyme
In words: HIV-1 Reverse Transcriptase Assay Inhibitor IC50 Determination (RNA-dependent DNA polymerase activity, SPA). Format: biochemical. How it is done: HIV-1 Reverse Transcriptase Assay Inhibitor IC50 Determination
RNA-dependent DNA polymerase activity was measured using a biotinylated primer oligonucleotide and tritiated dNTP substrate. Newly synthesized DNA was quantified by capturing the biotinylated primer molecules on streptavidin coated Scintillation Proximity Assay (SPA) beads (Amersham). […] The biotinylated DNA primer was obtained from the Integrated DNA Technologies Inc. and the RNA template was synthesized by Dharmacon. […] Reactions were initiated by the addition of 30 μl of the HIV-RT enzyme (final concentrations of […]). Protein concentrations were adjusted to provide linear product formation for at least 30 min of incubation. After incubation at 30° for 30 min, the reaction was quenched by addition of 50 μl of 200 mM EDTA (pH 8.0) and 2 mg/ml SA-PVT SPA beads (Amersham, RPNQ0009, reconstituted in 20 mM Tris-HCl, pH 8.0, 100 mM EDTA and 1% BSA). The beads were left to settle overnight and the SPA signals were counted in a 96-well top counter-NXT (Packard). IC50 values were obtained by sigmoidal regression analysis using GraphPad Prism 3.0 (GraphPad Software, Inc.).

[2] abbreviates: RNA-dependent DNA polymerase activity, SPA, 30 min at 30°, read-out: HIV-RT IC50.

Structures can show the parent of a compound that is named as a salt. Where two headings read alike, the source gives them in different places.

Usually IC50 stands for the point on the concentration scale where inhibition reaches its midpoint. Take “2-[3-(3-Chloro-5-cyano-phenoxy)-4-cyclopropyl-2-fluoro-phenoxy]-N-(2-chloro-4-sulfamoyl-phenyl)-acetamide [I-9]”: the IC50 in data set [1] (setting [2]) came out at 7.7 nM. The same measure, in the same setting: then “2-[4-Bromo-3-(3-chloro-5-cyano-phenoxy)-2-fluoro-phenoxy]-N-[2-chloro-4-(2,4-dioxo-imidazolidin-1-yl)-phenyl]-acetamide [I-30]”, with 15.5 nM. The same measure, in the same setting: then “2-[4-Chloro-3-(3,5-dicyano-phenoxy)-2-fluoro-phenoxy]-N-(2-methyl-4-sulfamoyl-phenyl)-acetamide [I-14]”, with 6.4 nM. What is called melting point is the temperature, or range, at which the solid turns liquid. The molecule `CCC(=O)NS(=O)(=O)c1ccc(NC(=O)COc2ccc(Br)c(Oc3cc(Cl)cc(C#N)c3)c2F)c(Cl)c1` (as salt: Na) [I-23] came in with a melting point of 261 to 264 °C.

In turn, `CCC(=O)NS(=O)(=O)c1ccc(NC(=O)COc2ccc(Br)c(Oc3cc(Cl)cc(C#N)c3)c2F)c(C)c1` (as salt: Na) [I-24] came in with a melting point of 268.1 to 270 °C. Regarding `N#Cc1cc(Cl)cc(Oc2c(Cl)ccc(OCC(=O)Nc3ccc(S(N)(=O)=O)cc3Cl)c2F)c1` [I-1, 2-[4-Chloro-3-(3-chloro-5-cyano-phenoxy)-2-fluoro-phenoxy]-N-(2-chloro-4-sulfamoyl-phenyl)-acetamide], the melting point was in the range of 233.3 to 247.6 °C. Moreover, the half-maximal inhibitory concentration (IC50) in data set [1] (setting [2]) stood at 16.2 nM. The matching figures for `Cc1cc(S(N)(=O)=O)ccc1NC(=O)COc1ccc(Cl)c(Oc2cc(Cl)cc(C#N)c2)c1F` [I-2]: 209.9 to 212 °C and 12.8 nM.

`Cc1cc(S(N)(=O)=O)ccc1NC(=O)COc1ccc(Br)c(Oc2cc(Cl)cc(C#N)c2)c1F` [I-4, 2-[4-Bromo-3-(3-chloro-5-cyano-phenoxy)-2-fluoro-phenoxy]-N-(2-methyl-4-sulfamoyl-phenyl)-acetamide]: the melting point was in the range of 226 to 228.8 °C. Moreover, the IC50 in data set [1] (setting [2]) is 6.5 nM. In the same order, the values of `N#Cc1cc(Cl)cc(Oc2c(Br)ccc(OCC(=O)Nc3ccc(S(N)(=O)=O)cc3Cl)c2F)c1` [I-5] are 250.9 to 252.3 °C and 18.7 nM. The molecule `CCc1ccc(OCC(=O)Nc2ccc(S(N)(=O)=O)cc2C)c(F)c1Oc1cc(Cl)cc(C#N)c1` [I-6, 2-[3-(3-Chloro-5-cyano-phenoxy)-4-ethyl-2-fluoro-phenoxy]-N-(2-methyl-4-sulfamoyl-phenyl)-acetamide] had a melting point of 188 to 189.6 °C. Also, the concentration for half-maximal inhibition (IC50) in data set [1] (setting [2]) worked out at 8.4 nM. As to `CCc1ccc(OCC(=O)Nc2ccc(S(N)(=O)=O)cc2Cl)c(F)c1Oc1cc(Cl)cc(C#N)c1` [I-7], in data set [1] (setting [2]), the IC50 is greater than 10000 nM. With `N#Cc1cc(Cl)cc(Oc2c(C3CC3)ccc(OCC(=O)Nc3ccc(S(N)(=O)=O)cc3Cl)c2F)c1` [I-8], the melting point lay in the range of 210 to 211 °C. For the same molecule, the IC50 in data set [1] (setting [2]) came to 18.3 nM. The matching figures for `N#Cc1cc(Cl)cc(Oc2cc(OCC(=O)Nc3ccc(S(N)(=O)=O)cc3Cl)ccc2Cl)c1` [I-10]: 217 to 219 °C and 7.4 nM. In turn, `COc1cc(C#N)cc(Oc2c(Cl)ccc(OCC(=O)Nc3ccc(S(N)(=O)=O)cc3C)c2F)c1` [I-11] displayed a melting point of 122 to 123.2 °C. For the same molecule, the IC50 in data set [1] (setting [2]) stood at 3.1 nM. The matching figures for `COc1cc(C#N)cc(Oc2c(Cl)ccc(OCC(=O)Nc3ccc(S(N)(=O)=O)cc3Cl)c2F)c1` [I-12]: 211 to 212 °C and 8.2 nM. In the same order, the values of `Cc1cc(S(N)(=O)=O)ccc1NC(=O)COc1ccc(Cl)c(Oc2cc(C#N)cc(C#N)c2)c1F` [I-13] are 264.5 to 265.2 °C and 3.8 nM. With `Cc1cc(S(N)(=O)=O)ccc1NC(=O)COc1ccc(Cl)c(Oc2cc(Cl)cc(C#N)c2)c1` [I-15, 2-[4-Chloro-3-(3-chloro-5-cyano-phenoxy)-phenoxy]-N-(2-methyl-4-sulfamoyl-phenyl)-acetamide], in data set [1] (setting [2]), the IC50 worked out at 6.5 nM. In turn, `COc1cc(C#N)cc(Oc2c(Br)ccc(OCC(=O)Nc3ccc(S(N)(=O)=O)cc3C)c2F)c1` [I-16] yielded a melting point of 220 to 223.3 °C. Further, the IC50 in data set [1] (setting [2]) was found to be 5.1 nM. The matching figures for `COc1cc(C#N)cc(Oc2c(Br)ccc(OCC(=O)Nc3ccc(S(N)(=O)=O)cc3Cl)c2F)c1` [I-17]: 213.9 to 217.9 °C and 12.6 nM. The molecule `Cc1cc(S(N)(=O)=O)ccc1NC(=O)COc1ccc(Cl)c(Oc2cc(Br)cc(C#N)c2)c1F` [I-18] came in with a melting point of 234.9 to 236.6 °C. In data set [1] (setting [2]), the concentration for half-maximal inhibition (IC50) was 6.6 nM.

Take `N#Cc1cc(Br)cc(Oc2c(Cl)ccc(OCC(=O)Nc3ccc(S(N)(=O)=O)cc3Cl)c2F)c1` [I-19]: the melting point is 242.2 to 244.9 °C. Further, the 50% inhibitory concentration (IC50) in data set [1] (setting [2]) was found to be 14.9 nM. For the molecule `CCc1cc(C#N)cc(Oc2c(Cl)ccc(OCC(=O)Nc3ccc(S(N)(=O)=O)cc3Cl)c2F)c1` [I-20, 2-[4-Chloro-3-(3-cyano-5-ethyl-phenoxy)-2-fluoro-phenoxy]-N-(2-chloro-4-sulfamoyl-phenyl)-acetamide], the 50% inhibitory concentration (IC50) in data set [1] (setting [2]) was found to be 31.7 nM. In turn, `N#Cc1cc(C#N)cc(Oc2c(Br)ccc(OCC(=O)Nc3ccc(S(N)(=O)=O)cc3Cl)c2F)c1` [I-21] gave a melting point of 255 to 257 °C. Moreover, the IC50 in data set [1] (setting [2]) is 19.1 nM.

On to `CCC(=O)NS(=O)(=O)c1ccc(NC(=O)COc2ccc(Br)c(Oc3cc(Cl)cc(C#N)c3)c2F)c(Cl)c1` [I-23], for which the IC50 in data set [1] (setting [2]) amounted to 4.8 nM.

On to `CCC(=O)NS(=O)(=O)c1ccc(NC(=O)COc2ccc(Br)c(Oc3cc(Cl)cc(C#N)c3)c2F)c(C)c1` [I-24], for which the IC50 in data set [1] (setting [2]) came out at 5.7 nM. Consider `N#Cc1cc(Oc2c(Cl)ccc(OCC(=O)Nc3ccc(S(N)(=O)=O)cc3Cl)c2F)cc(C2CC2)c1` [I-26], for which the melting point lay within 219 to 221 °C. Moreover, in data set [1] (setting [2]), the IC50 is 66.5 nM. For `N#Cc1cc(Cl)cc(Oc2c(Cl)ccc(OCC(=O)Nc3ccc(C(=O)O)cc3Cl)c2F)c1` [I-27, 3-Chloro-4-{2-[4-chloro-3-(3-chloro-5-cyano-phenoxy)-2-fluoro-phenoxy]-acetylamino}-benzoic acid], the IC50 in data set [1] (setting [2]) turned out to be 6.1 nM. Molecule `Cc1cc(C(N)=O)ccc1NC(=O)COc1ccc(Br)c(Oc2cc(Cl)cc(C#N)c2)c1F` [I-28, 4-{2-[4-Bromo-3-(3-chloro-5-cyano-phenoxy)-2-fluoro-phenoxy]-acetylamino}-3-methyl-benzamide] came in with a melting point of 250.6 to 252.5 °C. Moreover, the IC50 in data set [1] (setting [2]) came to 6.9 nM. In data set [1], `CC(C)(O)C#Cc1ccc(NC(=O)COc2ccc(Br)c(Oc3cc(Cl)cc(C#N)c3)c2F)c(Cl)c1` [I-31, 2-[4-Bromo-3-(3-chloro-5-cyano-phenoxy)-2-fluoro-phenoxy]-N-[2-chloro-4-(3-hydroxy-3-methyl-but-1-ynyl)-phenyl]-acetamide] gave a concentration for half-maximal inhibition (IC50) of 82.1 nM. Consider `CC(C)(N)C#Cc1ccc(NC(=O)COc2ccc(Cl)c(Oc3cc(Cl)cc(C#N)c3)c2F)c(Cl)c1` [I-32, N-[4-(3-Amino-3-methyl-but-1-ynyl)-2-chloro-phenyl]-2-[4-chloro-3-(3-chloro-5-cyano-phenoxy)-2-fluoro-phenoxy]-acetamide], for which, in data set [1] (setting [2]), the half-inhibitory concentration (IC50) was determined as 21.4 nM.
